Reference: publication PMC5901744 (Science (New York, N.Y.), 2017)

Tests used:
[1] = tested on: SaHEPD (hydroxyethylphosphonate dioxygenase from Streptomyces albus; class II HEPD); conditions: read-out: Km,HEP; Fe(II), O2; product MPn instead of HMP
[2] = tested on: SaHEPD (hydroxyethylphosphonate dioxygenase from Streptomyces albus; class II HEPD); assay: steady-state kinetics; format: biochemical; conditions: Fe(II), O2

With O=P(O)(O)CCO [2-HEP, 2-hydroxyethylphosphonate] the Km [1] was 15 ± 2 µM and the “Km,HEP” value [2] was “very similar to those of purified wild-type SaHEPD (Fig. S6 and S7, Table S2)”.
